The structures appear in SMILES notation.

The target of one assay is Recombinant human cathepsin S (CatS) (Homo sapiens, UniProt P25774). Description: Recombinant human cathepsin S (CatS) inhibition assay, fluorogenic substrate Z-Valine-Valine-Arginine-AMC.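 Note: Baculovirus-expressed CatS in pH 5.0 sodium acetate buffer with DTT and NaCl, fluorescence read each minute over 20 min, inhibition derived from rate slope.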
Sequence of Recombinant human cathepsin S (CatS) (P25774 115-331): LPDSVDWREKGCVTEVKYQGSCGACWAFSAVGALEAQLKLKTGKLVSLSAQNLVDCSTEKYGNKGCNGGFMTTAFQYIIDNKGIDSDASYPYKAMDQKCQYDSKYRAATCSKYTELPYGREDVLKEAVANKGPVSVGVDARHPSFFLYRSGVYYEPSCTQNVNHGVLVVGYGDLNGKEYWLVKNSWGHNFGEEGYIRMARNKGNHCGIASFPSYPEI
Details: not given
In general, IC50 refers to the point on the concentration scale where inhibition reaches its midpoint. For the compound `CC(C)(C)OC(=O)N1Cc2cc(C#Cc3cc(-c4nn(CCCN5CCOCC5)c5c4CN(S(C)(=O)=O)CC5)ccc3Cl)ccc2C[C@H]1C(=O)O` [Example 191, (3S)-7-({2-Chloro-5-[5-(methylsulfonyl)-1-(3-morpholin-4-ylpropyl)-4,5,6,7-tetrahydro-1H-pyrazolo[4,3-c]pyridin-3-yl]phenyl}ethynyl)-2-{[(1,1-dimethylethyl)oxy]carbonyl}-1,2,3,4-tetrahydroisoquinoline-3-carboxylic acid], the half-inhibitory concentration (IC50) was 630 nM.

Take `NC(=O)C1CCN(CCCn2nc(-c3ccc(Cl)c(C#Cc4ccc(CNCc5ccc(Cl)cc5)cc4)c3)c3c2CCN(C(N)=O)C3)CC1` [Example 461, 1-{3-[4-(Aminocarbonyl)piperidin-1-yl]propyl}-3-(4-chloro-3-{[4-({[(4-chlorophenyl)methyl]amino}methyl)phenyl]ethynyl}phenyl)-1,4,6,7-tetrahydro-5H-pyrazolo[4,3-c]pyridine-5-carboxamide]: the IC50 was 30 nM.

With `NC(=O)C(=O)N1CCc2c(c(-c3ccc(Cl)c(C#Cc4ccc(CNCc5ccc(Cl)cc5)cc4)c3)nn2C[C@@H](O)CN2CCSCC2)C1` [Example 249, (S)-2-[3-(4-Chloro-3-{4-[(4-chloro-benzylamino)-methyl]-phenylethynyl}-phenyl)-1-(2-hydroxy-3-thiomorpholin-4-yl-propyl)-1,4,6,7-tetrahydro-pyrazolo[4,3-c]pyridin-5-yl]-2-oxo-acetamide], the IC50 came out at 50 nM.

Regarding `NC(=O)N1CCc2c(c(-c3ccc(Cl)c(C#Cc4ccc(Cl)c(C(=O)NCCN5CCOCC5)c4)c3)nn2CCCN2CCSCC2)C1` [Example 585, 3-[4-Chloro-3-({4-chloro-3-[(2-morpholin-4-ylethyl)carbamoyl]phenyl}ethynyl)phenyl]-1-(3-thiomorpholin-4-ylpropyl)-1,4,6,7-tetrahydro-5H-pyrazolo[4,3-c]pyridine-5-carboxamide], the IC50 amounted to 40 nM. Still for that read-out and setting: the figure for `CS(=O)(=O)N1CCc2c(c(-c3ccc(Cl)c(C#Cc4ccc(CN[C@@H]5CCCc6ccccc65)cc4)c3)nn2CCCN2CCOCC2)C1` [Example 444, (1R)—N-{[4-({2-Chloro-5-[5-(methylsulfonyl)-1-(3-morpholin-4-ylpropyl)-4,5,6,7-tetrahydro-1H-pyrazolo[4,3-c]pyridin-3-yl]phenyl}ethynyl)phenyl]methyl}-1,2,3,4-tetrahydronaphthalen-1-amine] is 210 nM; for `CC(=O)N1CCC(C2CCN(C[C@H](O)Cn3nc(-c4ccc(Cl)c(C#Cc5ccc(Cl)cc5)c4)c4c3CCN(S(C)(=O)=O)C4)CC2)CC1` [Example 241, (2S)-1-(1′-Acetyl-4,4′-bipiperidin-1-yl)-3-[3-{4-chloro-3-[(4-chlorophenyl)ethynyl]phenyl}-5-(methylsulfonyl)-4,5,6,7-tetrahydro-1H-pyrazolo[4,3-c]pyridin-1-yl]propan-2-ol] it is 30 nM. Same read-out and setting: the same measure for `NC(=O)N1CCc2c(c(-c3ccc(Cl)c(C#Cc4ccc(Cl)c(CNCc5ccccc5)c4)c3)nn2CCCN2CCSCC2)C1` [Example 291, 3-{4-Chloro-3-[(4-chloro-3-{[(phenylmethyl)amino]methyl}phenyl)ethynyl]phenyl}-1-(3-thiomorpholin-4-ylpropyl)-1,4,6,7-tetrahydro-5H-pyrazolo[4,3-c]pyridine-5-carboxamide]: 30 nM.

Still in this assay, the particulars now being: CatS IC50.
With `NC(=O)N1CCc2c(c(-c3ccc(Cl)c(C#Cc4ccc(C(=O)N5CC[C@@H](O)C5)cc4)c3)nn2CCCN2CCSCC2)C1` [Example 552, 3-{4-Chloro-3-[(4-{[(3R)-3-hydroxypyrrolidin-1-yl]carbonyl}phenyl)ethynyl]phenyl}-1-(3-thiomorpholin-4-ylpropyl)-1,4,6,7-tetrahydro-5H-pyrazolo[4,3-c]pyridine-5-carboxamide], the IC50 worked out at 500 nM.

Consider `CN(C)C(=O)[C@@H]1Cc2ccc(C#Cc3cc(-c4nn(CCCN5CCOCC5)c5c4CN(S(C)(=O)=O)CC5)ccc3Cl)cc2CN1` [Example 193, (3S)-7-({2-Chloro-5-[5-(methylsulfonyl)-1-(3-morpholin-4-ylpropyl)-4,5,6,7-tetrahydro-1H-pyrazolo[4,3-c]pyridin-3-yl]phenyl}ethynyl)-N,N-dimethyl-1,2,3,4-tetrahydroisoquinoline-3-carboxamide], for which the concentration for half-maximal inhibition (IC50) was 50 nM. The same measure, in the same setting: the same measure for `NC(=O)N1CCc2c(c(-c3ccc(Cl)c(C#Cc4ccc(Cl)c(C(=O)NCCN5CCOCC5)c4)c3)nn2CCCN2CCCCC2)C1` [Example 590, 3-[4-Chloro-3-({4-chloro-3-[(2-morpholin-4-ylethyl)carbamoyl]phenyl}ethynyl)phenyl]-1-(3-piperidin-1-ylpropyl)-1,4,6,7-tetrahydro-5H-pyrazolo[4,3-c]pyridine-5-carboxamide]: 70 nM; for `CS(=O)(=O)N1CCc2c(c(-c3ccc(Cl)c(C#Cc4ccc(CNCC5CC5)cc4)c3)nn2CCCN2CCOCC2)C1` [Example 341, 1-[4-({2-Chloro-5-[5-(methylsulfonyl)-1-(3-morpholin-4-ylpropyl)-4,5,6,7-tetrahydro-1H-pyrazolo[4,3-c]pyridin-3-yl]phenyl}ethynyl)phenyl]-N-(cyclopropylmethyl)methanamine]: 830 nM; for `C[C@H]1COCCN1CCCn1nc(-c2ccc(Cl)c(C#Cc3ccc(Cl)c(CN4CCOCC4)c3)c2)c2c1CCN(C(=O)C(N)=O)C2` [Example 588, 2-[3-(4-Chloro-3-{[4-chloro-3-(morpholin-4-ylmethyl)phenyl]ethynyl}phenyl)-1-{3-[(3S)-3-methylmorpholin-4-yl]propyl}-1,4,6,7-tetrahydro-5H-pyrazolo[4,3-c]pyridin-5-yl]-2-oxoacetamide]: 40 nM. Regarding `NC(=O)N1CCc2c(c(-c3ccc(Cl)c(C#Cc4ccc(Cl)c(C(=O)N5CCCC5)c4)c3)nn2CCCN2CCSCC2)C1` [Example 570, 3-(4-Chloro-3-{[4-chloro-3-(pyrrolidin-1-ylcarbonyl)phenyl]ethynyl}phenyl)-1-(3-thiomorpholin-4-ylpropyl)-1,4,6,7-tetrahydro-5H-pyrazolo[4,3-c]pyridine-5-carboxamide], the 50% inhibitory concentration (IC50) was 260 nM. Still for that read-out and setting: the same measure for `CS(=O)(=O)N1CCc2c(c(-c3ccc(Cl)c(C#Cc4ccc(NCc5ccccc5)cc4)c3)nn2CCCN2CCOCC2)C1` [Example 321, 4-({2-Chloro-5-[5-(methylsulfonyl)-1-(3-morpholin-4-ylpropyl)-4,5,6,7-tetrahydro-1H-pyrazolo[4,3-c]pyridin-3-yl]phenyl}ethynyl)-N-(phenylmethyl)aniline]: 4650 nM; for `C[C@H]1COCCN1CCCn1nc(-c2ccc(Cl)c(C#Cc3ccc(Cl)c(CNCCO)c3)c2)c2c1CCN(S(C)(=O)=O)C2` [Example 293, 2-({[2-Chloro-5-({2-chloro-5-[1-{3-[(3S)-3-methylmorpholin-4-yl]propyl}-5-(methylsulfonyl)-4,5,6,7-tetrahydro-1H-pyrazolo[4,3-c]pyridin-3-yl]phenyl}ethynyl)phenyl]methyl}amino)ethanol]: 50 nM; for `CN1CCN(C(=O)[C@@H]2Cc3ccc(C#Cc4cc(-c5nn(CCCN6CCOCC6)c6c5CN(S(C)(=O)=O)CC6)ccc4Cl)cc3CN2)CC1` [Example 485, (3S)-7-({2-Chloro-5-[5-(methylsulfonyl)-1-(3-morpholin-4-ylpropyl)-4,5,6,7-tetrahydro-1H-pyrazolo[4,3-c]pyridin-3-yl]phenyl}ethynyl)-3-[(4-methylpiperazin-1-yl)carbonyl]-1,2,3,4-tetrahydroisoquinoline]: 50 nM. The same measure, in the same setting: the figure for `C[C@H]1COCCN1CCCn1nc(-c2ccc(Cl)c(C#Cc3ccc(Cl)c(C(=O)N4CCNCC4)c3)c2)c2c1CCN(C(=O)C(N)=O)C2` [Example 574, 2-[3-(4-Chloro-3-{[4-chloro-3-(piperazin-1-ylcarbonyl)phenyl]ethynyl}phenyl)-1-{3-[(3S)-3-methylmorpholin-4-yl]propyl}-1,4,6,7-tetrahydro-5H-pyrazolo[4,3-c]pyridin-5-yl]-2-oxoacetamide] is 140 nM; for `C[C@H]1COCCN1CCCn1nc(-c2ccc(Cl)c(C#Cc3ccc(Cl)c(C(=O)NC[C@@H]4CCNC4)c3)c2)c2c1CCN(C(=O)C(N)=O)C2` [Example 586, 5-{[5-(5-[Amino(oxo)acetyl]-1-{3-[(3S)-3-methylmorpholin-4-yl]propyl}-4,5,6,7-tetrahydro-1H-pyrazolo[4,3-c]pyridin-3-yl)-2-chlorophenyl]ethynyl}-2-chloro-N-[(3R)-pyrrolidin-3-ylmethyl]benzamide] it is 20 nM; for `CS(=O)(=O)N1CCc2c(c(-c3ccc(Cl)c(C#Cc4ccc(CN5Cc6ccccc6C5)cc4)c3)nn2CCCN2CCOCC2)C1` [Example 443, 3-(4-Chloro-3-{[4-(1,3-dihydro-2H-isoindol-2-ylmethyl)phenyl]ethynyl}phenyl)-5-(methylsulfonyl)-1-(3-morpholin-4-ylpropyl)-4,5,6,7-tetrahydro-1H-pyrazolo[4,3-c]pyridine] it is 690 nM. Still for that read-out and setting: the same measure for `NC(=O)C(=O)N1CCc2c(c(-c3ccc(Cl)c(C#Cc4ccc(CNCc5ccc(Cl)cc5)cc4)c3)nn2CCCN2CCC(C(N)=O)CC2)C1` [Example 450, 1-(3-{5-[Amino(oxo)acetyl]-3-(4-chloro-3-{[4-({[(4-chlorophenyl)methyl]amino}methyl)phenyl]ethynyl}phenyl)-4,5,6,7-tetrahydro-1H-pyrazolo[4,3-c]pyridin-1-yl}propyl)piperidine-4-carboxamide]: 70 nM; for `CS(=O)(=O)N1CCc2c(c(-c3ccc(Cl)c(C#Cc4ccc(CNCc5ccc(Cl)cc5)cc4)c3)nn2CCCN2CCC(C(F)(F)F)CC2)C1` [Example 345, 1-[4-({2-Chloro-5-[5-(methylsulfonyl)-1-{3-[4-(trifluoromethyl)piperidin-1-yl]propyl}-4,5,6,7-tetrahydro-1H-pyrazolo[4,3-c]pyridin-3-yl]phenyl}ethynyl)phenyl]-N-[(4-chlorophenyl)methyl]methanamine]: 110 nM. In the case of `CS(=O)(=O)N1CCc2c(c(-c3ccc(Cl)c(C#Cc4ccc5c(c4)CNC5)c3)nn2CCCN2CCOCC2)C1` [Example 393, 3-[4-Chloro-3-(2,3-dihydro-1H-isoindol-5-ylethynyl)phenyl]-5-(methylsulfonyl)-1-(3-morpholin-4-ylpropyl)-4,5,6,7-tetrahydro-1H-pyrazolo[4,3-c]pyridine], the IC50 came out at 220 nM.
